#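 Cultured in 96-well plates, cells were exposed to test compound for 48 hours across five concentrations. TGI denotes the concentration required for complete inhibition of growth.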
# Assays:
# Assay in all cases: growth of human tumour cells (NCI), 48 h
# NCI-H23 lung = system: NCI-H23 lung
# COLO 205 colon = system: COLO 205 colon
# HOP-92 NSCLC = system: HOP-92 NSCLC
# SK-MEL-28 melanoma = system: SK-MEL-28 melanoma
# KM12 colon = system: KM12 colon
# SK-MEL-2 melanoma = system: SK-MEL-2 melanoma
# HCC-2998 colon = system: HCC-2998 colon
# M19-MEL melanoma = system: M19-MEL melanoma
# MALME-3M melanoma = system: MALME-3M melanoma
# SNB-19 CNS = system: SNB-19 CNS
# SNB-75 CNS = system: SNB-75 CNS
# HCT-15 colon = system: HCT-15 colon
# OVCAR-3 ovarian = system: OVCAR-3 ovarian
# HCT-116 colon = system: HCT-116 colon
# DMS 273 small cell lung = system: DMS 273 small cell lung
# TK-10 renal = system: TK-10 renal
# HOP-62 NSCLC = system: HOP-62 NSCLC
# UACC-62 melanoma = system: UACC-62 melanoma
# UACC-257 melanoma = system: UACC-257 melanoma
# A549 NSCLC = system: A549 NSCLC
# RPMI-8226 leukemia = system: RPMI-8226 leukemia
# K-562 leukemia = system: K-562 leukemia
# U251 CNS = system: U251 CNS
# SK-OV-3 ovarian = system: SK-OV-3 ovarian
# SF-268 CNS = system: SF-268 CNS
# SF-539 CNS = system: SF-539 CNS
# 786-0 renal = system: 786-0 renal
# UO-31 renal = system: UO-31 renal
# KM20L2 colon = system: KM20L2 colon
# DMS 114 small cell lung = system: DMS 114 small cell lung
# HL-60(TB) leukemia = system: HL-60(TB) leukemia
# DLD-1 colon = system: DLD-1 colon
# OVCAR-4 ovarian = system: OVCAR-4 ovarian
# LXFL 529 NSCLC = system: LXFL 529 NSCLC
# LOX IMVI melanoma = system: LOX IMVI melanoma
# SN12C renal = system: SN12C renal
# ACHN renal = system: ACHN renal
# A498 renal = system: A498 renal
# MOLT-4 leukemia = system: MOLT-4 leukemia
# HT29 colon = system: HT29 colon
# SW-620 colon = system: SW-620 colon
# EKVX NSCLC = system: EKVX NSCLC
# CCRF-CEM leukemia = system: CCRF-CEM leukemia
# SNB-78 CNS = system: SNB-78 CNS
# RXF 393 renal = system: RXF 393 renal
# RXF-631 renal = system: RXF-631 renal
# M14 melanoma = system: M14 melanoma
# IGROV1 ovarian = system: IGROV1 ovarian
# SF-295 CNS = system: SF-295 CNS
# NCI-H460 lung = system: NCI-H460 lung
# OVCAR-8 ovarian = system: OVCAR-8 ovarian
# CAKI-1 renal = system: CAKI-1 renal
# SR leukemia = system: SR leukemia
# OVCAR-5 ovarian = system: OVCAR-5 ovarian
# NCI-H226 lung = system: NCI-H226 lung
# HOP-18 NSCLC = system: HOP-18 NSCLC
# NCI-H522 lung = system: NCI-H522 lung
# XF 498 CNS = system: XF 498 CNS
# SK-MEL-5 melanoma = system: SK-MEL-5 melanoma
structure (smiles),measurement,setting,value
OC1=CN=COc2ccccc21,TGI,NCI-H23 lung,> 100 µM
same,TGI,COLO 205 colon,> 100 µM
same,TGI,HOP-92 NSCLC,> 100 µM
same,TGI,SK-MEL-28 melanoma,> 100 µM
same,TGI,KM12 colon,> 100 µM
same,TGI,SK-MEL-2 melanoma,> 100 µM
same,TGI,HCC-2998 colon,> 100 µM
same,TGI,M19-MEL melanoma,> 100 µM
same,TGI,MALME-3M melanoma,> 100 µM
same,TGI,SNB-19 CNS,> 100 µM
same,TGI,SNB-75 CNS,> 100 µM
same,TGI,HCT-15 colon,> 100 µM
same,TGI,OVCAR-3 ovarian,> 100 µM
same,TGI,HCT-116 colon,> 100 µM
same,TGI,DMS 273 small cell lung,> 100 µM
same,TGI,TK-10 renal,> 100 µM
same,TGI,HOP-62 NSCLC,> 100 µM
same,TGI,UACC-62 melanoma,> 100 µM
same,TGI,UACC-257 melanoma,> 100 µM
same,TGI,A549 NSCLC,> 100 µM
same,TGI,RPMI-8226 leukemia,> 100 µM
same,TGI,K-562 leukemia,> 100 µM
same,TGI,U251 CNS,> 100 µM
same,TGI,SK-OV-3 ovarian,> 100 µM
same,TGI,SF-268 CNS,> 100 µM
same,TGI,SF-539 CNS,> 100 µM
same,TGI,786-0 renal,> 100 µM
same,TGI,UO-31 renal,> 100 µM
same,TGI,KM20L2 colon,> 100 µM
same,TGI,DMS 114 small cell lung,> 100 µM
same,TGI,HL-60(TB) leukemia,> 100 µM
same,TGI,DLD-1 colon,> 100 µM
same,TGI,OVCAR-4 ovarian,> 100 µM
same,TGI,LXFL 529 NSCLC,> 100 µM
same,TGI,LOX IMVI melanoma,> 100 µM
same,TGI,SN12C renal,> 100 µM
same,TGI,ACHN renal,> 100 µM
same,TGI,A498 renal,> 100 µM
same,TGI,MOLT-4 leukemia,> 100 µM
same,TGI,HT29 colon,> 100 µM
same,TGI,SW-620 colon,> 100 µM
same,TGI,EKVX NSCLC,> 100 µM
same,TGI,CCRF-CEM leukemia,> 100 µM
same,TGI,SNB-78 CNS,> 100 µM
same,TGI,RXF 393 renal,> 100 µM
same,TGI,RXF-631 renal,> 100 µM
same,TGI,M14 melanoma,> 100 µM
same,TGI,IGROV1 ovarian,> 100 µM
same,TGI,SF-295 CNS,> 100 µM
same,TGI,NCI-H460 lung,> 100 µM
same,TGI,OVCAR-8 ovarian,> 100 µM
CCC1=CCN(c2cc(C)ccn2)OC1c1ccccc1 (centres undefined),TGI,NCI-H23 lung,> 100 µM
same,TGI,COLO 205 colon,> 100 µM
same,TGI,SK-MEL-28 melanoma,77.1 µM
same,TGI,KM12 colon,> 100 µM
same,TGI,SK-MEL-2 melanoma,43.7 µM
same,TGI,HCC-2998 colon,81.7 µM
same,TGI,M19-MEL melanoma,> 100 µM
same,TGI,MALME-3M melanoma,80.8 µM
same,TGI,SNB-19 CNS,> 100 µM
same,TGI,SNB-75 CNS,> 100 µM
same,TGI,HCT-15 colon,> 100 µM
same,TGI,OVCAR-3 ovarian,> 100 µM
same,TGI,HCT-116 colon,> 100 µM
same,TGI,DMS 273 small cell lung,> 100 µM
same,TGI,HOP-62 NSCLC,> 100 µM
same,TGI,UACC-62 melanoma,> 100 µM
same,TGI,CAKI-1 renal,> 100 µM
same,TGI,UACC-257 melanoma,> 100 µM
same,TGI,A549 NSCLC,> 100 µM
same,TGI,RPMI-8226 leukemia,67.1 µM
same,TGI,K-562 leukemia,> 100 µM
same,TGI,U251 CNS,46.2 µM
same,TGI,SR leukemia,55.7 µM
same,TGI,SK-OV-3 ovarian,> 100 µM
same,TGI,SF-268 CNS,> 100 µM
same,TGI,SF-539 CNS,> 100 µM
same,TGI,OVCAR-5 ovarian,> 100 µM
same,TGI,NCI-H226 lung,> 100 µM
same,TGI,786-0 renal,> 100 µM
same,TGI,UO-31 renal,> 100 µM
same,TGI,KM20L2 colon,> 100 µM
same,TGI,HOP-18 NSCLC,> 100 µM
same,TGI,DMS 114 small cell lung,> 100 µM
same,TGI,HL-60(TB) leukemia,41.8 µM
same,TGI,DLD-1 colon,> 100 µM
same,TGI,OVCAR-4 ovarian,> 100 µM
same,TGI,LXFL 529 NSCLC,> 100 µM
same,TGI,LOX IMVI melanoma,> 100 µM
same,TGI,SN12C renal,> 100 µM
same,TGI,ACHN renal,> 100 µM
same,TGI,MOLT-4 leukemia,> 100 µM
same,TGI,HT29 colon,> 100 µM
same,TGI,SW-620 colon,> 100 µM
same,TGI,EKVX NSCLC,> 100 µM
same,TGI,NCI-H522 lung,62.1 µM
same,TGI,CCRF-CEM leukemia,> 100 µM
same,TGI,SNB-78 CNS,> 100 µM
same,TGI,RXF 393 renal,68 µM
same,TGI,RXF-631 renal,73.1 µM
same,TGI,M14 melanoma,> 100 µM
same,TGI,IGROV1 ovarian,> 100 µM
same,TGI,SF-295 CNS,> 100 µM
same,TGI,NCI-H460 lung,> 100 µM
same,TGI,OVCAR-8 ovarian,> 100 µM
same,TGI,XF 498 CNS,71.2 µM
C=C1C(=O)C23[C@H](O)C1CC[C@H]2[C@]12COC3(O)[C@@H](O)[C@@H]1C(C)(C)CC[C@@H]2O,TGI,NCI-H23 lung,29.8 µM
same,TGI,COLO 205 colon,2.14 µM
same,TGI,HOP-92 NSCLC,10.1 µM
same,TGI,SK-MEL-28 melanoma,12.9 µM
same,TGI,KM12 colon,31.4 µM
same,TGI,SK-MEL-2 melanoma,11 µM
same,TGI,HCC-2998 colon,29.9 µM
same,TGI,M19-MEL melanoma,26.3 µM
same,TGI,MALME-3M melanoma,6.94 µM
same,TGI,SNB-19 CNS,32.7 µM
same,TGI,SNB-75 CNS,38.7 µM
same,TGI,HCT-15 colon,15.9 µM
same,TGI,OVCAR-3 ovarian,28.2 µM
same,TGI,HCT-116 colon,19.3 µM
same,TGI,DMS 273 small cell lung,27.3 µM
same,TGI,TK-10 renal,31 µM
same,TGI,HOP-62 NSCLC,36.1 µM
same,TGI,UACC-62 melanoma,23.6 µM
same,TGI,CAKI-1 renal,4.89 µM
same,TGI,UACC-257 melanoma,29.5 µM
same,TGI,A549 NSCLC,44.7 µM
same,TGI,RPMI-8226 leukemia,29.3 µM
same,TGI,K-562 leukemia,15.6 µM
same,TGI,U251 CNS,18.9 µM
same,TGI,SR leukemia,34.9 µM
same,TGI,SK-OV-3 ovarian,31 µM
same,TGI,SF-268 CNS,18.3 µM
same,TGI,SF-539 CNS,22.6 µM
same,TGI,OVCAR-5 ovarian,32.7 µM
same,TGI,786-0 renal,24 µM
same,TGI,UO-31 renal,29 µM
same,TGI,KM20L2 colon,28.3 µM
same,TGI,HOP-18 NSCLC,24.6 µM
same,TGI,DMS 114 small cell lung,21.3 µM
same,TGI,HL-60(TB) leukemia,47.3 µM
same,TGI,DLD-1 colon,25.1 µM
same,TGI,OVCAR-4 ovarian,33.5 µM
same,TGI,LXFL 529 NSCLC,2.56 µM
same,TGI,LOX IMVI melanoma,33.3 µM
same,TGI,SK-MEL-5 melanoma,28.6 µM
same,TGI,SN12C renal,35.3 µM
same,TGI,ACHN renal,30.2 µM
same,TGI,A498 renal,22.7 µM
same,TGI,MOLT-4 leukemia,33.1 µM
same,TGI,HT29 colon,36.6 µM
same,TGI,SW-620 colon,4.86 µM
same,TGI,EKVX NSCLC,34.6 µM
same,TGI,NCI-H522 lung,1.9 µM
same,TGI,CCRF-CEM leukemia,95 µM
same,TGI,SNB-78 CNS,16.4 µM
same,TGI,RXF 393 renal,10.9 µM
same,TGI,RXF-631 renal,22.7 µM
same,TGI,M14 melanoma,18.5 µM
same,TGI,IGROV1 ovarian,38.7 µM
same,TGI,SF-295 CNS,32.2 µM
same,TGI,NCI-H460 lung,30.7 µM
same,TGI,OVCAR-8 ovarian,27.2 µM
same,TGI,XF 498 CNS,9.82 µM

# — PubChem BioAssay (NCI)
